Data reported in US20060120980A1, “Novel dermatological composition using bio-activating organocatalysts” (priority 2004, published 2006).
Blank lines part the entries; values can stand above or below the molecule they belong to.

What was measured:
[1] = appearance of the final solution (Cosmetics, formulary consideration); format: physicochemical; settings: appearance of final solution after reaction with Cu
Text: In certain aspects of the present invention, the catalyst system using transition metals (Cu or Fe) as trace catalytic metals, may require the presence of an optional redox agent (antioxidant) so as to produce H2O2. In order to form hydrogen peroxide, for example, it is necessary for the redox agent to reduce Cu^++ to Cu^+. […] In expanding the number of antioxidants, the following table was assembled after experimentation, based upon reactivity with Cu, the ability to reduce CoQ10 to H2CoQ10 and the appearance of the final solution (formulary consideration).

[2] = system: papilla-corium layer of skin; assay: bioreactive skin test (pin-head like projections, activation of the papilla-corium layer); format: in vivo; set-up: key: * = slight bioreactivity; *** = gross bioreactivity
Text: In this assay, compounds are applied to the dermis of an animal and potentially bio-reactive compounds (i.e., those which might function as bio-activating organocatalysts) produce a multiplicity of very small, pin-head like projections on the epidermis produced by activation of the papilla-corium layer. […] The bioreactivity of the formula can be judged by the intensity and time of the reaction.
The formula according to the present invention which are bioreactive in a skin test show a multiplicity of very small, pin-head like projections on the epidermis produced by activation of the papilla-corium layer. […] The activation ensues for about 2-4 hours and is from slight to gross depending on the formulation and returns to the normal skin landscape. The bioreactivity of the formula can be judged by the intensity and time of the reaction.
Essentially, the skin cream formulations containing organocatalyst are tested on skin. Those compositions which are bioreactive in the skin test show a multiplicity of very small, pin-head like projections on the epidermis produced by activation of the papilla-corium layer. The activation continues for about 2-4 hours and is from slight to gross depending on the formulation and returns to the normal skin landscape. The bioreactivity of the formula can be judged by the intensity and time of the reaction.

[3] = solubility of organocatalyst in Eucerin skin cream (table comment); format: physicochemical; settings: 20 % by weight in Eucerin skin cream
Protocol: In order to test the relative bioreactivity of organocatalysts according to the present invention, a number of potential organocatalysts were formulated into a skin cream using Eucerin™ at concentrations ranging from 2% to 25% by weight of the final skin cream formulation. These skin creams were formulated by dissolving the organocatalyst at a desired amount into the Eucerin. The formulated compositions were then tested for skin bioreactivity according to the method previously described hereinabove.

[4] = metal chelate; cited from earlier work
[5] = Table 1A, 2 % by weight in Eucerin skin cream
[6] = Table 1A, 25 % by weight in Eucerin skin cream
[7] = Table 1A, 20 % by weight in Eucerin skin cream

- Cosmetics [1]: clear solution
Molecule: O=C(O)CCCC[C@@H]1CCSS1 (racemic) [Lipoic Acid]

Molecule: O=C(O)[C@@H]1CC(O)CN1 (stereo partly shown) [1-4-hydroxyproline]
- Bioreactivity ([2]; Table 1, 2 % by weight): *
- Bioreactivity ([2]; Table 1, 25 % by weight): ***
- Bioreactivity [2, 5]: *
- Bioreactivity [2, 6]: ***

- Comment (solubility) [3]: low solubility
Molecule: N[C@@H](Cc1ccccc1)C(=O)O [1-phenylalanine]
- Bioreactivity ([2]; Table 1, 20 % by weight): *
- Bioreactivity [2, 7]: *

Molecule: CC(C)(C)OC(=O)[C@@H]1CCCN1 [1-proline-t-butyl ester]
- Bioreactivity ([2]; Table 1, 20 % by weight): ***
- Bioreactivity [2, 7]: ***

Molecule: O=C(O)[C@@H]1CCCN1 [1-proline]
- Bioreactivity ([2]; in vivo): *** and *

Molecule: O=C1NCC(C(=O)O)N1 (stereo not shown) [2-imidazolidone-4-carboxylic acid]
- Bioreactivity ([2]; Table 1, 2 % by weight): *
- Bioreactivity ([2]; Table 1, 20 % by weight): ***
- Bioreactivity [2, 5]: *
- Bioreactivity [2, 7]: ***

- Cosmetics [1]: dark brown ppt.
Molecule: O=C(O)/C=C/c1ccc(O)c(O)c1 [Caffeic acid]

Molecule: O=C([O-])CN(CCN(CC(=O)[O-])CC(=O)O)CC(=O)O.[Cu+2] [Copper EDTA]
- Affinity Constant [4]: 10^23

Molecule: N[C@@H](Cc1c[nH]cn1)C(=O)O.[Cu] [Copper histidine]
- Affinity Constant [4]: 10^16

- Cosmetics [1]: clear solution
Molecule: N[C@@H](CS)C(=O)O [Cysteine]

Molecule: CC(=O)N(O)CCCCCNC(=O)CCC(=O)N(O)CCCCCNC(=O)CCC(=O)N(O)CCCCCN [Desferrioxamine]
- Affinity Constant [4]: 10^30

Molecule: O=C([O-])CN(CCN(CC(=O)[O-])CC(=O)O)CC(=O)[O-].[Fe+3] [Ferric EDTA]
- Affinity Constant [4]: 10^25

Molecule: Oc1ccccc1O.[Fe+3] [Ferric catechol]
- Affinity Constant [4]: 10^20

Molecule: O=C(O)c1ccccc1O.[Fe+3] [Ferric salicylic acid]
- Affinity Constant [4]: 10^16

Molecule: O=C([O-])CN(CCN(CC(=O)[O-])CC(=O)[O-])CC(=O)[O-].[Fe+2].[H+].[H+] [Ferrous EDTA]
- Affinity Constant [4]: 10^25

Molecule: N[C@@H](Cc1c[nH]cn1)C(=O)O.[Fe+2] [Ferrous histidine]
- Affinity Constant [4]: 10^16

Molecule: CC(O)C(=O)[O-].CC(O)C(=O)[O-].[Fe+2] (stereo not shown) [Ferrous lactate]
- Affinity Constant [4]: 10^12

- Cosmetics [1]: ugly brown ppt.
Molecule: O=C(O)c1cc(O)c(O)c(O)c1 [Gallic acid]

- Cosmetics [1]: clear solution
Molecule: N[C@@H](CCC(=O)N[C@@H](CS)C(=O)NCC(=O)O)C(=O)O [Glutathione]

Molecule: O=C(O)CO [Glycolic acid]
- Affinity Constant [4]: 10^5

- Cosmetics [1]: clear solution
Molecule: CC(=O)N[C@@H](CS)C(=O)O [N-acetyl cysteine]

- Comment (solubility) [3]: low solubility
Molecule: CC(=O)N1CCC[C@H]1C(=O)O [N-acetyl-1-proline]
- Bioreactivity ([2]; Table 1, 20 % by weight): *
- Bioreactivity [2, 7]: *

- Cosmetics [1]: ugly brown ppt.
Molecule: CCCOC(=O)c1cc(O)c(O)c(O)c1 [Propyl gallate]

- Cosmetics [1]: slightly colored ppt
Molecule: O=c1[nH]c(=O)c2[nH]c(=O)[nH]c2[nH]1 [Uric acid]

Molecule: O=C(O)C1CCCN1 (stereo not shown) [d,1-proline]
- Bioreactivity ([2]; in vivo): ***

Molecule: O=C([O-])C(O)C(O)C(=O)[O-].[Na+].[Na+] (stereo not shown) [disodium tartrate, reference compound]
- Bioreactivity [2, 7]: no reactivity

Molecule: CC(O)CO (stereo not shown) [propylene glycol, reference compound]
- Bioreactivity [2, 6]: no reactivity

Molecule: C=C[C@H]1C[N@@]2CC[C@H]1C[C@@H]2[C@@H](O)c1ccnc2ccc(OC)cc12 [quinidine, reference compound]
- Bioreactivity ([2]; Table 1, 2 % by weight): *
- Bioreactivity [2, 5]: *

Molecule: C=C[C@H]1CN2CC[C@H]1C[C@H]2[C@H](O)c1ccnc2ccc(OC)cc12.O=S(=O)(O)O [quinine hydrosulfate, reference compound]
- Bioreactivity ([2]; Table 1, 2 % by weight): *
- Bioreactivity [2, 5]: *

Molecule: Copper gluconate
- Affinity Constant [4]: 10^6

Molecule: Copper lacate
- Affinity Constant [4]: 10^10-10^12

Molecule: Copper tripeptide (GHG)
- Affinity Constant [4]: 10^16

- Cosmetics [1]: ugly brown ppt.
Molecule: Vitamin E
